Earlier results as cited in EP3865125A1, “PHARMACEUTICAL COMPOSITION COMPRISING ELIGLUSTAT” (Kashiv Biosciences, LLC, priority 2020, dated 2021).
Where two headings read alike, the source gives them in different places.

Assays:
[1] = mice, 50-mg/kg dose
[2] = rats, 50-mg/kg dose
[3] = dogs, 50-mg/kg dose
[4] = not given; remark: listed apart in the source

- absolute bioavailability (CERDELGA capsule, CHMP assessment report): 4.49% ± 4.13%
- systemic exposure AUC0-12 at steady state compared to after the first dose (AUC0-inf) (multiple oral doses of 84 mg twice daily in EMs): up to 2 fold
- oral bioavailability (oral route, significant first pass metabolism): less than 5%
- oral bioavailability [1]: 8%
- oral bioavailability [2]: 39%
- oral bioavailability [3]: 42%
- solubility [4]: high solubility
Structure (SMILES): CCCCCCCC(=O)N[C@H](CN1CCCC1)[C@H](O)c1ccc2c(c1)OCCO2 [Eliglustat]
